From patent US11964021B2, “Bacterially derived, intact minicells for delivery of therapeutic agents to brain tumors” (EnGeneIC Molecular Delivery Pty Ltd, priority 2011, dated 2024)

Assays:
[1] = kinetics, FIG. 2A of MacDiarmid et al. Cancer Cell (2007); cited from earlier work
[2] = test system: human brain tumor cell line U87-MG; test: MTS cell proliferation assay, doxorubicin sensitivity, human cells; format: cell-based; conditions: 1.7 nM to 8,600 nM, 72 hours
Method: (§1) Canine brain tumor cells BCD-1, -8, -9 and J3T and human brain tumor cell line U87-MG were seeded into 96 well plates at 5×10^3 cells per well. Cells were incubated overnight at 37° C., 5% CO2.
(§2) Doxorubicin was added to cells in […], of relevant media containing serum at concentrations ranging from 1.7 nM to 8,600 nM and incubated for 72 hours.
(§3) To measure the cytotoxic effect of Doxorubicin an MTS cell proliferation assay was performed. To each well 20 uL of MTS solution (CellTitre 96® Aqueous One MTS reagent—Promega) was added and incubated in the dark for 30 minutes. Absorbance was read at a wavelength of 490 nm. Data was analysed in Prism GraphPad (La Jolla, CA, USA) using non-linear regression and a 4-parameter curve fit.

[3] = test system: Canine brain tumor cells BCD-1, -8, -9 and J3T; test: MTS cell proliferation assay, doxorubicin sensitivity, canine cells; format: cell-based; conditions: 1.7 nM to 8,600 nM, 72 hours
Method: as §1, §2, §3

| SMILES | leakage of drug out of intact minicells once packaged [1] | sensitivity of cells to doxorubicin [2] | sensitivity of cells to doxorubicin [3] |
| --- | --- | --- | --- |
| N.N.[Cl][Pt][Cl] [cisplatin, Cisplatin] | did not leak out |  |  |
| COc1cccc2c1C(=O)c1c(O)c3c(c(O)c1C2=O)C[C@@](O)(C(=O)CO)C[C@@H]3O[C@H]1C[C@H](N)[C@H](O)[C@H](C)O1 [doxorubicin, Doxorubicin] | did not leak out | equally sensitive | equally sensitive |
